# Measured values taken from article PMC4053376, “Characterization of the Xiamenmycin Biosynthesis Gene Cluster in Streptomyces xiamenensis 318” (PLoS ONE, 2014).
# What was measured:
# XimC = target: T1, XimC (Streptomyces xiamenensis, UniProt U5Q2Q4); experiment: product 4HB by GC-MS; format: biochemical; conditions: 50 mM Tris-HCl pH 7.5, 30 °C, 30 min
# T1 construct: full-length 196 aa; N-terminal His6 tag, pET28a, E. coli BL21(DE3), Ni-NTA purified
# XimB = target: T2, XimB (Streptomyces xiamenensis, UniProt U5PZQ3); experiment: membrane fraction, product […] by UPLC-Q-TOF-MS; format: biochemical; conditions: 0.3 mM GPP, 0.5 mM 4HB, 5 mM MgSO4, 50 mM Tris-HCl pH 7.5, 30 °C
# T2 construct: full-length 313 aa; N-terminal His tag, pET28a, E. coli BL21(DE3) membrane fraction; twelve predicted transmembrane helices
# T2 sequence (U5PZQ3 1-313): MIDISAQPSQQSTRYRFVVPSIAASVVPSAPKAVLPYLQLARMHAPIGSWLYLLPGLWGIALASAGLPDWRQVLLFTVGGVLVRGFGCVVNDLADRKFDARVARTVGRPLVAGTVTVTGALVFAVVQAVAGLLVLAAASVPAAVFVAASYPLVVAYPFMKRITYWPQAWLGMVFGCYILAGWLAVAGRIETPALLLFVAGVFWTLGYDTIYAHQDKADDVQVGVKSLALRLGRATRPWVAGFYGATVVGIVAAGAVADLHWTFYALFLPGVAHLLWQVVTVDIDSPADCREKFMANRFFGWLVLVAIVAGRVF
# T1 sequence (U5Q2Q4 entry or part of it): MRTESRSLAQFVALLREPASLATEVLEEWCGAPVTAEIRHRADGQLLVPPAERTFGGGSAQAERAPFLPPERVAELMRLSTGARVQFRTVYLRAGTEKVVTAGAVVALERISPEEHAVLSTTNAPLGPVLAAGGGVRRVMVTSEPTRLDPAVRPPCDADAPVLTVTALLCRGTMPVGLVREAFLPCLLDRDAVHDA
SMILES,product 4HB by GC-MS (XimC),"membrane fraction, product 2 by UPLC-Q-TOF-MS (XimB)"
C=C(O[C@@H]1C=C(C(=O)O)C=C[C@H]1O)C(=O)O [chorismate],"incubated with chorismate, the formation of 4HB was observed and confirmed by GC-MS",–
CC(C)=CCC/C(C)=C/COP(=O)(O)OP(=O)(O)O [geranyl diphosphate],–,membrane fraction containing XimB was incubated with 4HB and GPP
O=C(O)c1ccc(O)cc1 [4-hydroxybenzoic acid],–,membrane fraction containing XimB was incubated with 4HB and GPP
